Assay results published in patent US20080027006A1 (priority 2004, published 2008).

Target: HR-N and HR-C regions of the SARS-CoV S glycoprotein (Severe acute respiratory syndrome coronavirus, UniProt P59594)
Format: binding, SARS coronavirus (Urbani strain)

| Compound | interaction with HR-C1 (in words) | induction of ellipticity at 222 nm with HR-C1 |
| --- | --- | --- |
| CC[C@H](C)[C@H](NC(=O)CNC(=O)[C@H](CC(N)=O)NC(=O)[C@H](Cc1ccccc1)NC(C)=O)C(=O)NCC(=O)N[C@H](C(=O)N[C@H](C(=O)N[C@@H](CCC(N)=O)C(=O)N[C@@H](CC(N)=O)C(=O)N[C@H](C(=O)N[C@@H](CC(C)C)C(=O)N[C@@H](Cc1ccc(O)cc1)C(=O)N[C@@H](CCC(=O)O)C(=O)N[C@@H](CC(N)=O)C(=O)N[C@@H](CCC(N)=O)C(=O)N[C@@H](CCCCN)C(=O)N[C@@H](CCC(N)=O)C(=O)N[C@H](C(=O)N[C@@H](C)C(=O)N[C@@H](CC(N)=O)C(=O)N[C@@H](CCC(N)=O)C(=O)N[C@@H](Cc1ccccc1)C(=O)N[C@@H](CC(N)=O)C(=O)N[C@@H](CCCCN)C(=O)N[C@@H](C)C(=O)N[C@H](C(=O)N[C@@H](CO)C(=O)N[C@@H](CCC(N)=O)C(=O)N[C@H](C(=O)N[C@@H](CCC(N)=O)C(=O)N[C@@H](CCC(=O)O)C(=O)N[C@@H](CO)C(=O)N[C@@H](CC(C)C)C(=O)N[C@H](C(=O)N[C@H](C(N)=O)[C@@H](C)O)[C@@H](C)O)[C@@H](C)CC)[C@@H](C)CC)[C@@H](C)CC)C(C)C)[C@@H](C)O)C(C)C [HR-N6] | No interactions | – |
| CC[C@H](C)[C@H](NC(=O)[C@H](C)NC(=O)[C@H](CCCCN)NC(=O)[C@H](CC(N)=O)NC(=O)[C@H](Cc1ccccc1)NC(=O)[C@H](CCC(N)=O)NC(=O)[C@H](CC(N)=O)NC(=O)[C@H](C)NC(=O)[C@@H](NC(=O)[C@H](CCC(N)=O)NC(=O)[C@H](CCCCN)NC(=O)[C@H](CCC(N)=O)NC(C)=O)[C@@H](C)CC)C(=O)N[C@@H](CO)C(=O)N[C@@H](CCC(N)=O)C(=O)N[C@H](C(=O)N[C@@H](CCC(N)=O)C(=O)N[C@@H](CCC(=O)O)C(=O)N[C@@H](CO)C(=O)N[C@@H](CC(C)C)C(=O)N[C@H](C(=O)N[C@H](C(=O)N[C@H](C(=O)N[C@@H](CO)C(=O)N[C@H](C(=O)N[C@@H](C)C(=O)N[C@@H](CC(C)C)C(=O)NCC(=O)N[C@@H](CCCCN)C(=O)N[C@@H](CC(C)C)C(=O)N[C@@H](CCC(N)=O)C(=O)N[C@@H](CC(=O)O)C(=O)N[C@H](C(=O)N[C@H](C(=O)N[C@@H](CC(N)=O)C(=O)N[C@@H](CCC(N)=O)C(N)=O)C(C)C)C(C)C)[C@@H](C)O)[C@@H](C)O)[C@@H](C)O)[C@@H](C)O)[C@@H](C)CC [HR-N8] | No interactions | – |
| CC[C@H](C)[C@H](NC(=O)[C@H](C)NC(=O)[C@H](CCCCN)NC(=O)[C@H](CC(N)=O)NC(=O)[C@H](Cc1ccccc1)NC(=O)[C@H](CCC(N)=O)NC(=O)[C@H](CC(N)=O)NC(=O)[C@H](C)NC(=O)[C@@H](NC(=O)[C@H](CCC(N)=O)NC(=O)[C@H](CCCCN)NC(=O)[C@H](CCC(N)=O)NC(=O)[C@H](CC(N)=O)NC(=O)[C@H](CCC(=O)O)NC(=O)[C@H](Cc1ccc(O)cc1)NC(=O)[C@H](CC(C)C)NC(=O)[C@@H](NC(=O)[C@H](CC(N)=O)NC(=O)[C@H](CCC(N)=O)NC(C)=O)C(C)C)[C@@H](C)CC)C(=O)N[C@@H](CO)C(=O)N[C@@H](CCC(N)=O)C(=O)N[C@H](C(=O)N[C@@H](CCC(N)=O)C(=O)N[C@@H](CCC(=O)O)C(=O)N[C@@H](CO)C(=O)N[C@@H](CC(C)C)C(=O)N[C@H](C(=O)N[C@H](C(=O)N[C@H](C(=O)N[C@@H](CO)C(=O)N[C@H](C(=O)N[C@@H](C)C(=O)N[C@@H](CC(C)C)C(=O)NCC(=O)N[C@@H](CCCCN)C(N)=O)[C@@H](C)O)[C@@H](C)O)[C@@H](C)O)[C@@H](C)O)[C@@H](C)CC [HR-N7] | No interactions | – |
| CC[C@H](C)[C@H](NC(=O)[C@H](C)NC(=O)[C@H](CCCCN)NC(=O)[C@H](CC(N)=O)NC(=O)[C@H](Cc1ccccc1)NC(C)=O)C(=O)N[C@@H](CO)C(=O)N[C@@H](CCC(N)=O)C(=O)N[C@H](C(=O)N[C@@H](CCC(N)=O)C(=O)N[C@@H](CCC(=O)O)C(=O)N[C@@H](CO)C(=O)N[C@@H](CC(C)C)C(=O)N[C@H](C(=O)N[C@H](C(=O)N[C@H](C(=O)N[C@@H](CO)C(=O)N[C@H](C(=O)N[C@@H](C)C(=O)N[C@@H](CC(C)C)C(=O)NCC(=O)N[C@@H](CCCCN)C(=O)N[C@@H](CC(C)C)C(=O)N[C@@H](CCC(N)=O)C(=O)N[C@@H](CC(=O)O)C(=O)N[C@H](C(=O)N[C@H](C(=O)N[C@@H](CC(N)=O)C(=O)N[C@@H](CCC(N)=O)C(=O)N[C@@H](CC(N)=O)C(=O)N[C@@H](C)C(=O)N[C@@H](CCC(N)=O)C(=O)N[C@@H](C)C(=O)N[C@@H](CC(C)C)C(=O)N[C@@H](CC(N)=O)C(=O)N[C@H](C(N)=O)[C@@H](C)O)C(C)C)C(C)C)[C@@H](C)O)[C@@H](C)O)[C@@H](C)O)[C@@H](C)O)[C@@H](C)CC [HR-N9] | – | 3,500 degrees |
| CC[C@H](C)[C@H](NC(=O)[C@H](C)NC(=O)CNC(=O)[C@H](Cc1ccccc1)NC(=O)[C@H](CC(N)=O)NC(=O)[C@H](CO)NC(=O)[C@H](CO)NC(=O)[C@H](CC(C)C)NC(=O)[C@H](CCC(N)=O)NC(=O)[C@H](CCCCN)NC(=O)[C@@H](NC(=O)[C@H](CC(C)C)NC(=O)[C@@H](NC(=O)[C@H](CC(N)=O)NC(=O)[C@H](CC(C)C)NC(=O)[C@H](C)NC(=O)[C@H](CCC(N)=O)NC(=O)[C@H](C)NC(=O)[C@H](CC(N)=O)NC(=O)[C@H](CCC(N)=O)NC(=O)[C@H](CC(N)=O)NC(=O)[C@@H](NC(=O)[C@@H](NC(=O)[C@H](CC(=O)O)NC(=O)[C@H](CCC(N)=O)NC(=O)[C@H](CC(C)C)NC(=O)[C@H](CCCCN)NC(=O)CNC(=O)[C@H](CC(C)C)NC(=O)[C@H](C)NC(=O)[C@@H](NC(=O)[C@H](CO)NC(=O)[C@@H](NC(C)=O)[C@@H](C)O)[C@@H](C)O)C(C)C)C(C)C)[C@@H](C)O)C(C)C)C(=O)N[C@@H](CO)C(=O)N[C@@H](CO)C(N)=O [HR-N11] | absence of any observable interaction | – |
| CC[C@H](C)[C@H](NC(C)=O)C(=O)N[C@@H](CCC(N)=O)C(=O)N[C@@H](CCC(=O)O)C(=O)N[C@@H](CO)C(=O)N[C@@H](CC(C)C)C(=O)N[C@H](C(=O)N[C@H](C(=O)N[C@H](C(=O)N[C@@H](CO)C(=O)N[C@H](C(=O)N[C@@H](C)C(=O)N[C@@H](CC(C)C)C(=O)NCC(=O)N[C@@H](CCCCN)C(=O)N[C@@H](CC(C)C)C(=O)N[C@@H](CCC(N)=O)C(=O)N[C@@H](CC(=O)O)C(=O)N[C@H](C(=O)N[C@H](C(=O)N[C@@H](CC(N)=O)C(=O)N[C@@H](CCC(N)=O)C(=O)N[C@@H](CC(N)=O)C(=O)N[C@@H](C)C(=O)N[C@@H](CCC(N)=O)C(=O)N[C@@H](C)C(=O)N[C@@H](CC(C)C)C(=O)N[C@@H](CC(N)=O)C(=O)N[C@H](C(=O)N[C@@H](CC(C)C)C(=O)N[C@H](C(=O)N[C@@H](CCCCN)C(=O)N[C@@H](CCC(N)=O)C(=O)N[C@@H](CC(C)C)C(=O)N[C@@H](CO)C(=O)N[C@@H](CO)C(N)=O)C(C)C)[C@@H](C)O)C(C)C)C(C)C)[C@@H](C)O)[C@@H](C)O)[C@@H](C)O)[C@@H](C)O [HR-N10] | – | 9,600 degrees |
| CC[C@H](C)[C@H](NC(=O)[C@H](CCC(N)=O)NC(=O)[C@H](CO)NC(=O)[C@@H](NC(=O)[C@H](C)NC(=O)[C@H](CCCCN)NC(=O)[C@H](CC(N)=O)NC(=O)[C@H](Cc1ccccc1)NC(=O)[C@H](CCC(N)=O)NC(=O)[C@H](CC(N)=O)NC(=O)[C@H](C)NC(=O)[C@@H](NC(=O)[C@H](CCC(N)=O)NC(=O)[C@H](CCCCN)NC(=O)[C@H](CCC(N)=O)NC(=O)[C@H](CC(N)=O)NC(=O)[C@H](CCC(=O)O)NC(=O)[C@H](Cc1ccc(O)cc1)NC(=O)[C@H](CC(C)C)NC(=O)[C@@H](NC(=O)[C@H](CC(N)=O)NC(=O)[C@H](CCC(N)=O)NC(=O)[C@@H](NC(=O)[C@@H](NC(=O)CNC(=O)[C@@H](NC(=O)CNC(=O)[C@H](CC(N)=O)NC(=O)[C@H](Cc1ccccc1)NC(=O)[C@H](CCCNC(=N)N)NC(=O)[C@H](Cc1ccc(O)cc1)NC(=O)[C@H](C)NC(=O)[C@H](CCSC)NC(=O)[C@H](CCC(N)=O)NC(=O)[C@H](CCSC)NC(C)=O)[C@@H](C)CC)C(C)C)[C@@H](C)O)C(C)C)[C@@H](C)CC)[C@@H](C)CC)C(N)=O [HR-N5] | no detectable interaction | – |
